This is an account of results in patent publication US8017602B2, “N-(2-(2-(5-hydroxy-3-oxo-3,4-dihydro-2H-benzo[b][1,4]oxazin-8-yl)ethylamino)ethyl)-3-(phenethoxy)propanamide derivatives, processes for their preparation, pharmaceutical compositions containing them and their use in therapy” (AstraZeneca AB, priority 2008, dated 2011).

Structures can show the parent of a compound that is named as a salt. Some results are limits rather than exact numbers.

The target in experiment [1] is T1, recombinant human Dopamine Subtype D2s receptors (Homo sapiens, UniProt P14416).
T1 construct: purchased Perkin Elmer
Put plainly: Dopamine D2 selectivity binding assay ([3H]-spiperone). The following applies: inhibition of [3H]-spiperone binding, human D2s membranes; read-out: D2 bind pIC50 (converted). As for the experimental part: Membranes containing recombinant human Dopamine Subtype D2s receptors were obtained from Perkin Elmer. These were diluted in Assay Buffer (50 mM HEPES, 1 mM EDTA, 120 mM NaCl, 0.1% gelatin, pH 7.4) to provide a final concentration of membranes that gave a clear window between maximum and minimum specific binding.
Assays were performed in U-bottomed 96-well polypropylene plates. 30 μL [^3H]-spiperone (0.16 nM final concentration) and 30 μl of test compound (10× final concentration) were added to each test well. For each assay plate 8 replicates were obtained for [^3H]-spiperone binding in the presence of 30 μL vehicle (10% (v/v) DMSO in Assay Buffer; defining maximum binding) or 30 μl Haloperidol (10 μM final concentration; defining non-specific binding (NSB)). Membranes were then added to achieve a final volume of 300 μL. The plates were incubated for 2 h at room temperature and then filtered onto PEI coated GF/B filter plates, pre-soaked for 1 h in Assay Buffer, using a 96-well plate Tomtec cell harvester. Five washes with 250 μl wash buffer (50 mM HEPES, 1 mM EDTA, 120 mM NaCl, pH 7.4) were performed at 4° C. to remove unbound radioactivity. The plates were dried then sealed from underneath using Packard plate sealers and MicroScint-O (50 μl) was added to each well. The plates were sealed (TopSeal A) and filter-bound radioactivity was measured with a scintillation counter (TopCount, Packard BioScience) using a 3-minute counting protocol.
Total specific binding (B0) was determined by subtracting the mean NSB from the mean maximum binding. NSB values were also subtracted from values from all other wells. […] Data was fitted to a four parameter logistic equation to determine the compound potency, which was expressed as pIC50 (negative log molar concentration inducing 50% inhibition of [^3H]-spiperone binding).

For experiment [2], the target named is T2, recombinant human α1D receptor (Homo sapiens, UniProt P25100).
T2 construct: expressed in transfected cells; host or cells: HEK293
T2 sequence (P25100 1-572): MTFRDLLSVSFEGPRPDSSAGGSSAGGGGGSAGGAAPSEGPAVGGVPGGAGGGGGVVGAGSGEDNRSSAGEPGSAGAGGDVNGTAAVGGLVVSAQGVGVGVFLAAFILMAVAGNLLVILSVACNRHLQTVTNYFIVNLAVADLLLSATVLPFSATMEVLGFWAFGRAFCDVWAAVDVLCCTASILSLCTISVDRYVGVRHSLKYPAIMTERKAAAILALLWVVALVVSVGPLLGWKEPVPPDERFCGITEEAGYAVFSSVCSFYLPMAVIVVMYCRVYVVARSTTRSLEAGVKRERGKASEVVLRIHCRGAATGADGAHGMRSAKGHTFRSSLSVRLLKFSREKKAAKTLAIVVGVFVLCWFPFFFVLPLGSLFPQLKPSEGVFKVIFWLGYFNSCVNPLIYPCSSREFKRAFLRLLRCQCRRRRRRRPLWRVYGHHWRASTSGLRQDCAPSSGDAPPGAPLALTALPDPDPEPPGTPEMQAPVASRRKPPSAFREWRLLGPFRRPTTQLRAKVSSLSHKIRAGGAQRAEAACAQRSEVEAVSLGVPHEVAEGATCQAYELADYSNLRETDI
Put plainly: Adrenergic α1D selectivity binding assay ([3H]-prazosin). The following applies: inhibition of [3H]-prazosin binding, HEK293 membranes, read-out: α1 bind pIC50 (converted). The method, then:
Membranes were prepared from human embryonic kidney 293 (HEK293) cells expressing recombinant human α1D receptor. These were diluted in Assay Buffer (50 mM HEPES, 1 mM EDTA, pH 7.4) to provide a final concentration of membranes that gave a clear window between maximum and minimum specific binding.
Assays were performed in U-bottomed 96-well polypropylene plates. 10 μl [^3H]-prazosin (0.3 nM final concentration) and 10 μl of test compound (10× final concentration) were added to each test well. For each assay plate 8 replicates were obtained for [^3H]-prazosin binding in the presence of 10 μl vehicle (10% (v/v) DMSO in Assay Buffer; defining maximum binding) or 10 μL BMY7378 (10 μM final concentration; defining non-specific binding (NSB)). Membranes were then added to achieve a final volume of 100 μL. The plates were incubated for 2 h at room temperature and then filtered onto PEI coated GF/B filter plates, pre-soaked for 1 h in Assay Buffer, using a 96-well plate Tomtec cell harvester. Five washes with 250 μl wash buffer (50 mM HEPES, 1 mM EDTA, pH 7.4) were performed at 4° C. to remove unbound radioactivity. The plates were dried then sealed from underneath using Packard plate sealers and MicroScint-O (50 μl) was added to each well. The plates were sealed (TopSeal A) and filter-bound radioactivity was measured with a scintillation counter (TopCount, Packard BioScience) using a 3-minute counting protocol.
Total specific binding (B0) was determined by subtracting the mean NSB from the mean maximum binding. NSB values were also subtracted from values from all other wells. […] Data was fitted to a four parameter logistic equation to determine the compound potency, which was expressed as pIC50 (negative log molar concentration inducing 50% inhibition of [^3H]-prazosin binding).

T1 sequence (P14416 1-414 isoform P14416-2): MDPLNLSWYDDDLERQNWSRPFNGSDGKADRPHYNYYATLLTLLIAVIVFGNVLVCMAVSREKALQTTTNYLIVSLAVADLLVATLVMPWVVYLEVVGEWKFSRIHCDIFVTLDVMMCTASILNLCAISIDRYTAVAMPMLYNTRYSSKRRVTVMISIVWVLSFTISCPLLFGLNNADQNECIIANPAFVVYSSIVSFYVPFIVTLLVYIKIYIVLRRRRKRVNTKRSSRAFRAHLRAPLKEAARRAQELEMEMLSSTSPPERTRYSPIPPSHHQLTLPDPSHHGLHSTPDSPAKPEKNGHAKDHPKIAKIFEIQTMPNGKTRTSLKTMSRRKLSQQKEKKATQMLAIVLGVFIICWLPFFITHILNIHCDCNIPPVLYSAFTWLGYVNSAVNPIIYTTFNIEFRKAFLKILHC

Regarding `Cn1nccc1-c1cccc(CCOCCC(=O)N(CCNCCc2ccc(O)c3c2OCC(=O)N3)C2CCCCC2)c1` [Example 03, N-Cyclohexyl-N-(2-(2-(5-hydroxy-3-oxo-3,4-dihydro-2H-benzo[b][1,4]oxazin-8-yl)ethylamino)ethyl)-3-(3-(1-methyl-1H-pyrazol-5-yl)phenethoxy)propanamide Trifluoroacetic Acid Salt], the IC50 in experiment [1] is 2.51 µM; in experiment [2] it was 2 µM.
Taken in the same sequence, the figures for `CCn1cc(-c2cccc(CCOCCC(=O)N(CCNCCc3ccc(O)c4c3OCC(=O)N4)C3CCCCC3)c2)nn1` [Example 04, N-Cyclohexyl-3-(3-(1-ethyl-1H-1,2,3-triazol-4-yl)phenethoxy)-N-(2-(2-(5-hydroxy-3-oxo-3,4-dihydro-2H-benzo[b][1,4]oxazin-8-yl)ethylamino)ethyl)propanamide Trifluoroacetic Acid Salt] were 6.31 µM and 2 µM.
Taken in the same sequence, the figures for `Cn1cc(-c2cccc(CCOCCC(=O)N(CCNCCc3ccc(O)c4c3OCC(=O)N4)C3CCCCC3)c2)nn1` [Example 05, N-Cyclohexyl-N-(2-(2-(5-hydroxy-3-oxo-3,4-dihydro-2H-benzo[b][1,4]oxazin-8-yl)ethylamino)ethyl)-3-(3-(1-methyl-1H-1,2,3-triazol-4-yl)phenethoxy)propanamide Trifluoroacetic Acid Salt] were 3.16 µM and 2 µM.
With `Cn1nnc(-c2cccc(CCOCCC(=O)N(CCNCCc3ccc(O)c4c3OCC(=O)N4)C3CCCCC3)c2)n1` [Example 07, N-Cyclohexyl-N-(2-(2-(5-hydroxy-3-oxo-3,4-dihydro-2H-benzo[b][1,4]oxazin-8-yl)ethylamino)ethyl)-3-(3-(2-methyl-2H-tetrazol-5-yl)phenethoxy)propanamide Trifluoroacetic Acid Salt], the results for the IC50 in experiment [1] and in experiment [2] were 6.31 µM and 1 µM, respectively.
In the case of `Cn1nnnc1-c1cccc(CCOCCC(=O)N(CCNCCc2ccc(O)c3c2OCC(=O)N3)C2CCCCC2)c1` [Example 08, N-Cyclohexyl-N-(2-(2-(5-hydroxy-3-oxo-3,4-dihydro-2H-benzo[b][1,4]oxazin-8-yl)ethylamino)ethyl)-3-(3-(1-methyl-1H-tetrazol-5-yl)phenethoxy)propanamide Trifluoroacetic Acid Salt], the IC50 is 3.16 µM in experiment [1] and 3.98 µM in experiment [2].
With `CC(C)[C@@H](C)N(CCNCCc1ccc(O)c2c1OCC(=O)N2)C(=O)CCOCCc1cccc(-c2cnn(C)c2)c1` [Example 09, (R)—N-(2-(2-(5-Hydroxy-3-oxo-3,4-dihydro-2H-benzo[b][1,4]oxazin-8-yl)ethylamino)ethyl)-3-(3-(1-methyl-1H-pyrazol-4-yl)phenethoxy)-N-(3-methylbutan-2-yl)propanamide Trifluoroacetic Acid Salt], the results for the IC50 in experiment [1] and in experiment [2] were greater than 10 µM and 1 µM, respectively.
Taken in the same sequence, the figures for `O=C1COc2c(CCNCCN(C(=O)CCOCCc3cccc(-c4cnco4)c3)C3CCCCC3)ccc(O)c2N1` [Example 10, N-Cyclohexyl-N-(2-(2-(5-hydroxy-3-oxo-3,4-dihydro-2H-benzo[b][1,4]oxazin-8-yl)ethylamino)ethyl)-3-(3-(oxazol-5-yl)phenethoxy)propanamide Trifluoroacetic Acid Salt] were 1 µM and 0.316 µM.
For `CC(C)n1cc(-c2cccc(CCOCCC(=O)N(CCNCCc3ccc(O)c4c3OCC(=O)N4)C3CCCCC3)c2)nn1` [Example 12, N-Cyclohexyl-N-(2-(2-(5-hydroxy-3-oxo-3,4-dihydro-2H-benzo[b][1,4]oxazin-8-yl)ethylamino)ethyl)-3-(3-(1-isopropyl-1H-1,2,3-triazol-4-yl)phenethoxy)propanamide Trifluoroacetic Acid Salt] the same measures were 3.98 µM and 1.58 µM.
Taken in the same sequence, the figures for `Cn1cc(-c2cc(CCOCCC(=O)N(CCNCCc3ccc(O)c4c3OCC(=O)N4)C3CCCCC3)ccc2F)cn1` [Example 13, N-Cyclohexyl-3-(4-fluoro-3-(1-methyl-1H-pyrazol-4-yl)phenethoxy)-N-(2-(2-(5-hydroxy-3-oxo-3,4-dihydro-2H-benzo[b][1,4]oxazin-8-yl)ethylamino)ethyl)propanamide Trifluoroacetic Acid Salt] were 3.16 µM and 0.631 µM.
`O=C1COc2c(CCNCCN(C(=O)CCOCCc3cccc(-c4c[nH]nn4)c3)C3CCCCC3)ccc(O)c2N1` [Example 14, 3-(3-(1H-1,2,3-Triazol-4-yl)phenethoxy)-N-cyclohexyl-N-(2-(2-(5-hydroxy-3-oxo-3,4-dihydro-2H-benzo[b][1,4]oxazin-8-yl)ethylamino)ethyl)propanamide Trifluoroacetic Acid Salt]: the IC50 is 2.51 µM in experiment [1] and 1 µM in experiment [2].
For `O=C1COc2c(CCNCCN(C(=O)CCOCCc3cccc(-c4nn[nH]n4)c3)C3CCCCC3)ccc(O)c2N1` [Example 15, 3-(3-(2H-Tetrazol-5-yl)phenethoxy)-N-cyclohexyl-N-(2-(2-(5-hydroxy-3-oxo-3,4-dihydro-2H-benzo[b][1,4]oxazin-8-yl)ethylamino)ethyl)propanamide Trifluoroacetic Acid Salt] the same measures were greater than 10 µM and greater than 10 µM.
As to `Cn1cc(-c2cccc(CCOCCC(=O)N(CCNCCc3ccc(O)c4c3OCC(=O)N4)C3CCCCC3)c2F)cn1` [Example 16, N-Cyclohexyl-3-(2-fluoro-3-(1-methyl-1H-pyrazol-4-yl)phenethoxy)-N-(2-(2-(5-hydroxy-3-oxo-3,4-dihydro-2H-benzo[b][1,4]oxazin-8-yl)ethylamino)ethyl)propanamide Trifluoroacetic Acid Salt], the IC50 in experiment [1] is 2 µM; in experiment [2] it was 0.501 µM.
For `Cn1cc(-c2cc(F)cc(CCOCCC(=O)N(CCNCCc3ccc(O)c4c3OCC(=O)N4)C3CCCCC3)c2)cn1` [Example 17, N-Cyclohexyl-3-(3-fluoro-5-(1-methyl-1H-pyrazol-4-yl)phenethoxy)-N-(2-(2-(5-hydroxy-3-oxo-3,4-dihydro-2H-benzo[b][1,4]oxazin-8-yl)ethylamino)ethyl)propanamide Trifluoroacetic Acid Salt], the results for the IC50 in experiment [1] and in experiment [2] were 2.51 µM and 0.501 µM, respectively.
With `O=C1COc2c(CCNCCN(C(=O)CCOCCc3cccc(-c4cnn(CC5CC5)c4)c3)C3CCCC3)ccc(O)c2N1` [Example 19, N-Cyclopentyl-3-(3-(1-(cyclopropylmethyl)-1H-pyrazol-4-yl)phenethoxy)-N-(2-(2-(5-hydroxy-3-oxo-3,4-dihydro-2H -benzo[b][1,4]oxazin-8-yl)ethylamino)ethyl)propanamide Trifluoroacetic Acid Salt], the IC50 in experiment [1] is 2.51 µM; in experiment [2], 1 µM.
